By EC50 is commonly meant the concentration at which the effect is half-maximal. What is called IC50 is the concentration that inhibits the measured activity by half. Broadly, the Ki is a measure of affinity in units of concentration, obtained from inhibition or displacement. Usually AC50 stands for the midpoint of the concentration-response curve, whichever way the signal moves.

Active and inactive are the calls of the source.

This note sets out measurements from ChEMBL document CHEMBL1201862, “PubChem BioAssay data set” (2004).

Assay [1] deals with Luciferin 4-monooxygenase (Photinus pyralis, UniProt P08659). Nature of the assay: Counter Screen for Luciferase-based Assay Positives. [Related pubchem assays: 620, 618, 411 ]. On the technique in general: A counterscreen serves to expose hits that act by an unwanted route or on another target.
The target in assay [2] is T1, Sentrin-specific protease 6 (Homo sapiens, UniProt Q9GZR1).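 Further: Luminescence-based dose-response confirmatory assay of SENP6 inhibition, following up an ultra-high-throughput screen.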
T1 sequence (Q9GZR1 whole entry): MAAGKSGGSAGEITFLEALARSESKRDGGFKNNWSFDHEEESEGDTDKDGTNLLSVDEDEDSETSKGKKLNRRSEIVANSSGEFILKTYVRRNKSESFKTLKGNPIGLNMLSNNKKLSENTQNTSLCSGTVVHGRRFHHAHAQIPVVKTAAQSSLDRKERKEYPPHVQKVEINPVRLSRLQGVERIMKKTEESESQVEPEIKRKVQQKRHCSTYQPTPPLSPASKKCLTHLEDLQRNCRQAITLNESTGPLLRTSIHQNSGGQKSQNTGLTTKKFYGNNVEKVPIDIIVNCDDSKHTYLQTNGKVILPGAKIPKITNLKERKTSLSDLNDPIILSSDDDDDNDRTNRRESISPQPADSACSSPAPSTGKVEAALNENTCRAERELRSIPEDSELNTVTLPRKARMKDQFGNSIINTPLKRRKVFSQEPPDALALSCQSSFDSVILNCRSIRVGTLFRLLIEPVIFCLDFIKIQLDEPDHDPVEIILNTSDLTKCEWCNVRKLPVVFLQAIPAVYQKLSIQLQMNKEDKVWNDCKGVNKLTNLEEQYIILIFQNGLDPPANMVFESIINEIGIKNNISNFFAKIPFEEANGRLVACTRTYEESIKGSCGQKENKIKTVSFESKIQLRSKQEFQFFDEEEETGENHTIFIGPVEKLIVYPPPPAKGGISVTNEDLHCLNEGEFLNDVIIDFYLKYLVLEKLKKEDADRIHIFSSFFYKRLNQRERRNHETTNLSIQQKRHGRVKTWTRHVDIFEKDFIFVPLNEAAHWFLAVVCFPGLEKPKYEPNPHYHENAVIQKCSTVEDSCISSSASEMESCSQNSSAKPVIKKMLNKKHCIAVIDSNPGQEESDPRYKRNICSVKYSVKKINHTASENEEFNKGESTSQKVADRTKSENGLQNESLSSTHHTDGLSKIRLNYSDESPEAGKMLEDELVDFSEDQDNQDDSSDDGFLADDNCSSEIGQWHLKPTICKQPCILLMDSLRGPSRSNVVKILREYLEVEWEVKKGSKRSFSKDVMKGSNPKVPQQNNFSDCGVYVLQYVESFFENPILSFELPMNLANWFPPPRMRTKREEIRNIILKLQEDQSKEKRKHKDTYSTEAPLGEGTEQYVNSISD
The format is functional.

Assay [3] concerns the target Proto-oncogene tyrosine-protein kinase ROS (Homo sapiens, UniProt P08922). Format: functional.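 Further: ROS1 tested as one member of a kinome-wide kinase panel.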
Another assay concerns the target Ephrin type-A receptor 2 (Homo sapiens, UniProt P29317). Format: functional.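 Further: EPHA2 tested as one member of a kinome-wide kinase panel.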
Assay [4] concerns the target Glycogen synthase kinase-3 beta (Homo sapiens, UniProt P49841). Format: functional.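 Further: value comes from a broad kinome profiling panel, with GSK3B as the panel member.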
Assay [5] deals with Tyrosine-protein kinase receptor UFO (Homo sapiens, UniProt P30530). The format is functional.
Assay [6] in a line: C. albicans growth with fluconazole, confirmation, fluorescence, retest (AID 2467). Format: functional, cell-based.
A short description of assay [7]: inhibitors of intracellular T. cruzi replication, confirmation, NIH3T3 host cells, beta-gal luminescence (AID 2044).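 Further: intracellular parasites grown in NIH/3T3 mouse fibroblasts as host cells; luminescent beta-galactosidase reporter signal from transgenic T. cruzi replicating inside host cells; inhibitors lower the luminescence signal.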 Format: functional, cell-based.
Assay [8] has as its target Tyrosine-protein phosphatase non-receptor type 22 (Homo sapiens, UniProt Q9Y2R2). Format: functional.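 Further: confirmatory dose-response retest of primary uHTS hits for inhibition of LYP phosphatase, measured by a fluorescence intensity read-out.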
The target of assay [9] is T2, Replicative DNA helicase DnaB (Mycobacterium tuberculosis, UniProt P9WMR3).
T2 sequence (P9WMR3 whole entry): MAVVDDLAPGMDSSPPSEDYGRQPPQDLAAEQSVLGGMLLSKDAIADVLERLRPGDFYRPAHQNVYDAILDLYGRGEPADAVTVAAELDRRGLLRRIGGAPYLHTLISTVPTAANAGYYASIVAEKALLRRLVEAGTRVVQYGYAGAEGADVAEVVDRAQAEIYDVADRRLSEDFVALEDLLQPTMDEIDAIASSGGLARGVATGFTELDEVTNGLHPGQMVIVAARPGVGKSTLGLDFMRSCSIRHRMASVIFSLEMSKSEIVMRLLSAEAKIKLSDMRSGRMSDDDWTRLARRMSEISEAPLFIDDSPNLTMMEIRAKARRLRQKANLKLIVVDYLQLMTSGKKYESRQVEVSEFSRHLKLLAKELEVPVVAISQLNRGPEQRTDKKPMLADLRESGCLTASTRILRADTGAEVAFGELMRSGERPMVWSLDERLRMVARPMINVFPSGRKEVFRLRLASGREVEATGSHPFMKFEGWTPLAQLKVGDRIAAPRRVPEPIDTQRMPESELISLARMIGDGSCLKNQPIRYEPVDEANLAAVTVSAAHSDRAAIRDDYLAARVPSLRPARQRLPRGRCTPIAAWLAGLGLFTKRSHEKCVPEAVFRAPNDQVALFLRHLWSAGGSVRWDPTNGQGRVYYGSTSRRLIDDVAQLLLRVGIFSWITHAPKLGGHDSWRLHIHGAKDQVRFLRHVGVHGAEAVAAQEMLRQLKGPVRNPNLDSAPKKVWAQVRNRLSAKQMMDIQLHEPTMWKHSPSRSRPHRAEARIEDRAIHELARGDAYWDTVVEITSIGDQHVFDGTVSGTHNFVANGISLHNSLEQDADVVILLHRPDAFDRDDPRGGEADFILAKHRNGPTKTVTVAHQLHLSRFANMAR
Nature of the assay: DnaB Intein secondary assay Measured in Biochemical System Using Plate Reader - 2047-04_Inhibitor_Dose_DryPowder_Activity. [Related pubchem assays (depositor defined):AID2223].

Assay [10] can be described thus: non-specific cell cytotoxicity, dose response, cytotoxicity control for PAX8 inhibitor project, plate reader, dry powder samples (AID 743021). Format: functional, cell-based.

Sequence of Proto-oncogene tyrosine-protein kinase ROS (P08922 whole entry): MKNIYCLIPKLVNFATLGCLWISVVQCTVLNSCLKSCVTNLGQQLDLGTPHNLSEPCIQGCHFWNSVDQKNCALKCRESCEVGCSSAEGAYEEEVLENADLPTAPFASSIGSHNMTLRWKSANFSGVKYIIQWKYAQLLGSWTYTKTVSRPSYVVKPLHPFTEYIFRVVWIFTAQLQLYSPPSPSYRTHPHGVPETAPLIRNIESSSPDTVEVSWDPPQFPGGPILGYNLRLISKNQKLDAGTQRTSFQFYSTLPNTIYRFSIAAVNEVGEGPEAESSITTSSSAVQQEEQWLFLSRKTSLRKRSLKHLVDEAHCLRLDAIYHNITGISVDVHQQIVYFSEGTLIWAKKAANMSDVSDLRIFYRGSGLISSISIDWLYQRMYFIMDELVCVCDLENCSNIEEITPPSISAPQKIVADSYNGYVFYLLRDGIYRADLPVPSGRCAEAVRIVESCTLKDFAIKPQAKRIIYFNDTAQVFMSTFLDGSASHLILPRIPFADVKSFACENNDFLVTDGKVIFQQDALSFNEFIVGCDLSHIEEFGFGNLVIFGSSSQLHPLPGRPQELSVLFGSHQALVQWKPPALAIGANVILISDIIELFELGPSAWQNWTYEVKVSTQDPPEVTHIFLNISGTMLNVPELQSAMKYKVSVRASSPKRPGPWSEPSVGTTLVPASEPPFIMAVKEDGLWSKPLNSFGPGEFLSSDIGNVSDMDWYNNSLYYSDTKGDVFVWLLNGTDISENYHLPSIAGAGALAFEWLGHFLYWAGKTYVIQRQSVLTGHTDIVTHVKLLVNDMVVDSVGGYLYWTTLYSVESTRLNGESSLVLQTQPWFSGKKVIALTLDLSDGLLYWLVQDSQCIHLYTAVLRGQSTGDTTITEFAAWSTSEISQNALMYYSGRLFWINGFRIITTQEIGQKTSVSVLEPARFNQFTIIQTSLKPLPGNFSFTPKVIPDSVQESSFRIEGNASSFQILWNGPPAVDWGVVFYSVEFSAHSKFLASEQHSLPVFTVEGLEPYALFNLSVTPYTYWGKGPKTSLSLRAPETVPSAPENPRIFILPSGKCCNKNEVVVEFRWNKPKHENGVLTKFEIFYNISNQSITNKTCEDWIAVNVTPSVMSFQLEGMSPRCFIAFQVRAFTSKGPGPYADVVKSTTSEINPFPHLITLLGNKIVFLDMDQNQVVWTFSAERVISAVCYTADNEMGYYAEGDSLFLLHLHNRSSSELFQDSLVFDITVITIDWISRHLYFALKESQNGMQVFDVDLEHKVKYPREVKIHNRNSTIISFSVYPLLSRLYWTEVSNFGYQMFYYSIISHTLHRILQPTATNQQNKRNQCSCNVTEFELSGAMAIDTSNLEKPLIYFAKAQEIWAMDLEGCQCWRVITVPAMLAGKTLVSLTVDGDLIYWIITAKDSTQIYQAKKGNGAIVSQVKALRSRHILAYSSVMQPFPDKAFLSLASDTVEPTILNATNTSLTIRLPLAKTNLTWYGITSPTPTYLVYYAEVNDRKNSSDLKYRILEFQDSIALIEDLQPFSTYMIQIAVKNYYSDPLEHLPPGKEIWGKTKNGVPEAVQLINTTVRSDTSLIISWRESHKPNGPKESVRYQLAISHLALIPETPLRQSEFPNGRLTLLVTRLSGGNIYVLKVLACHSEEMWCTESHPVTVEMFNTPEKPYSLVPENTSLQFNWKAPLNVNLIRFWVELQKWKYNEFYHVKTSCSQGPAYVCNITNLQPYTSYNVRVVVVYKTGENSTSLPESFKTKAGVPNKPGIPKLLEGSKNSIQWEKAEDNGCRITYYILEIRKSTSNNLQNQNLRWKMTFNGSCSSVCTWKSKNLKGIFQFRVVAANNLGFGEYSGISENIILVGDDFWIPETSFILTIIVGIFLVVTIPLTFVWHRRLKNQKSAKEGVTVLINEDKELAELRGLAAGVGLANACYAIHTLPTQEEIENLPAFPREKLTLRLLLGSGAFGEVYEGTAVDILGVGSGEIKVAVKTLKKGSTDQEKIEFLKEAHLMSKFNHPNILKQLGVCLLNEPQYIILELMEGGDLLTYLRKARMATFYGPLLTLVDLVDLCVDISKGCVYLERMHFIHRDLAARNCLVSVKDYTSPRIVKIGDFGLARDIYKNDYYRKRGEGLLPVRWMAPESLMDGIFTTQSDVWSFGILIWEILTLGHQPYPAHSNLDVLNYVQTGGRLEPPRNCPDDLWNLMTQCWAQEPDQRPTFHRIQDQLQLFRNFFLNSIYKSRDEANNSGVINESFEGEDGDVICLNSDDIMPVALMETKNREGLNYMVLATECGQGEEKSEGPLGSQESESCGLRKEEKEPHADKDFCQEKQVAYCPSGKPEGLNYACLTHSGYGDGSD
Sequence of Glycogen synthase kinase-3 beta (P49841 whole entry): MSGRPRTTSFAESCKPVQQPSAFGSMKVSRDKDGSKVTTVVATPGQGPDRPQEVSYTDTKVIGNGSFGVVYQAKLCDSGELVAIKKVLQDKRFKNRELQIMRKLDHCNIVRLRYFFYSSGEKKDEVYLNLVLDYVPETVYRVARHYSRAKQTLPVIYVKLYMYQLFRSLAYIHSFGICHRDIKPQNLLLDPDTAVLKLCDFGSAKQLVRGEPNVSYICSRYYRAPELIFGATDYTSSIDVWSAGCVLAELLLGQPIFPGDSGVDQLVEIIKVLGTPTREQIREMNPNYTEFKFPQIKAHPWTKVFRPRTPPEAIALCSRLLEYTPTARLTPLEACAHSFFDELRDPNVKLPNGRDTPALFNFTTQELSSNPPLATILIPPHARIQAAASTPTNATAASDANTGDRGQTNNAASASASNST
Sequence of Tyrosine-protein kinase receptor UFO (P30530 whole entry): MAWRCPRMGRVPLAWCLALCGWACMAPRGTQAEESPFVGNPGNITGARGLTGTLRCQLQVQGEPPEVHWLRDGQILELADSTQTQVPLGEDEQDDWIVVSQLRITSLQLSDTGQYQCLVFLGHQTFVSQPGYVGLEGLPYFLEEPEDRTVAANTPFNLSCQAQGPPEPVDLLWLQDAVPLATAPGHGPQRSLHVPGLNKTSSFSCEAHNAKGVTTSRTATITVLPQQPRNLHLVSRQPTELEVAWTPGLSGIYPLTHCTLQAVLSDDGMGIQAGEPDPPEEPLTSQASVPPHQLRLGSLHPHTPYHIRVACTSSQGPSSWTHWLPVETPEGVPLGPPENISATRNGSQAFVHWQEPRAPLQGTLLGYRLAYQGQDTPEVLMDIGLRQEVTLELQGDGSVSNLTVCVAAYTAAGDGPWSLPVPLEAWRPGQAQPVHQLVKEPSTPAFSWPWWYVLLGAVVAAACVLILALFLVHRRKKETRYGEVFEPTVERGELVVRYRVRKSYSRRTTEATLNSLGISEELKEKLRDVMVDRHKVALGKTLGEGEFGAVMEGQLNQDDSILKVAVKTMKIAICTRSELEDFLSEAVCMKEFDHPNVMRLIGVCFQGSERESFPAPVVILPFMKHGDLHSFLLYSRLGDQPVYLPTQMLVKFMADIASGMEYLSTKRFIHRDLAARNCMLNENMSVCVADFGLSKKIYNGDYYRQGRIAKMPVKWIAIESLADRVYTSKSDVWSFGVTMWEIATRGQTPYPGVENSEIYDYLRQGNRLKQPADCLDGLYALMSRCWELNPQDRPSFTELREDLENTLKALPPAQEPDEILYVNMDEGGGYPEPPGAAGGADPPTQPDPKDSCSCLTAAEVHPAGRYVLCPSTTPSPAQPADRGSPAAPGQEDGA
Sequence of Tyrosine-protein phosphatase non-receptor type 22 (Q9Y2R2 whole entry): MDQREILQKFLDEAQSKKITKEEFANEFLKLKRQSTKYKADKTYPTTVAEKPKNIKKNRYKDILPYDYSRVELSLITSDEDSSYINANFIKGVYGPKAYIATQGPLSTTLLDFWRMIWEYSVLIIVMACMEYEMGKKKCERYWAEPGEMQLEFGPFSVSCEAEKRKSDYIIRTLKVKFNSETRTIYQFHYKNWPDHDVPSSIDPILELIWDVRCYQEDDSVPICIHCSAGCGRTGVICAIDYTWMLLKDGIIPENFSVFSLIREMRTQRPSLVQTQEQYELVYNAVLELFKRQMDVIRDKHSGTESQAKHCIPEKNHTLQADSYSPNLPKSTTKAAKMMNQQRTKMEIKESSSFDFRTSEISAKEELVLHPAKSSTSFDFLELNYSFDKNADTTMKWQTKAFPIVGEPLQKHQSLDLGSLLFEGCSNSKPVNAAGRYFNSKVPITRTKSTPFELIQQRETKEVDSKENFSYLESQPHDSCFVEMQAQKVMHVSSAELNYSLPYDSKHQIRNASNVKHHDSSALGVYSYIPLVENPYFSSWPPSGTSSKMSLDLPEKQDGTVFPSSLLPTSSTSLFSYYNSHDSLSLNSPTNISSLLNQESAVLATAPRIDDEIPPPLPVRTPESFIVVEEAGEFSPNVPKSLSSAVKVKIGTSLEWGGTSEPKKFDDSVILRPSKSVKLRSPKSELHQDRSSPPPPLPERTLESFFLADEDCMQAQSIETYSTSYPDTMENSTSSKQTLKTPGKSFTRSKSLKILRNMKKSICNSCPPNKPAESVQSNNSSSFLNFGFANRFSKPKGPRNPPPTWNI
Sequence of Luciferin 4-monooxygenase (P08659 whole entry): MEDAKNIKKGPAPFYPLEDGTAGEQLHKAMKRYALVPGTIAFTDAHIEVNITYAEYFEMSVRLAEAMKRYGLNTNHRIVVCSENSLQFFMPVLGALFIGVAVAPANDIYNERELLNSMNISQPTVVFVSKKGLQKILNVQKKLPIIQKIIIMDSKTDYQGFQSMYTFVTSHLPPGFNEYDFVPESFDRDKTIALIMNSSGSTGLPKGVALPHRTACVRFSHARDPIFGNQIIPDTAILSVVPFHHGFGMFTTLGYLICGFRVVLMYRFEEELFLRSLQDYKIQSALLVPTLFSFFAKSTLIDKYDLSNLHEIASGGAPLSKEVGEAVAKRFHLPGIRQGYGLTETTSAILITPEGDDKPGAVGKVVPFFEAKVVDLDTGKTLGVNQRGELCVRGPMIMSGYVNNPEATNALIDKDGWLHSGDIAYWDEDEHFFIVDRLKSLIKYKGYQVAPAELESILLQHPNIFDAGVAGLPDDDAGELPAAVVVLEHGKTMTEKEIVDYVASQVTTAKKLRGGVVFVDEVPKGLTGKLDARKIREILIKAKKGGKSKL

On to `CC(C)c1ccc(-c2nnn(CCC(=O)O)n2)cc1`, for which the concentration for a half-maximal effect (EC50) in assay [1] is 4.77 µM (active). Further, the IC50 in assay [2] was 9.32 µM (active).

`COc1cc2c(cc1Nc1nc(Nc3cccc(F)c3C(N)=O)c3cc[nH]c3n1)N(C(=O)CN(C)C)CC2`: the inhibitory constant (Ki) in assay [3] is 0.00251 µM (active); at Ephrin type-A receptor 2, > 3.16 µM (inactive); in [4], > 3.98 µM (inactive); in [5], 0.126 µM (active).

For the compound `CCn1nc(/C=C/c2ccccc2)nc2c(=O)n(C)c(=O)nc1-2`, the EC50 was 0.63 µM (active) in assay [6] and 0.789 µM (active) in assay [7]. Further, in assay [8], the half-maximal inhibitory concentration (IC50) is 11.7 µM (active). In addition, the half-maximal activity concentration (AC50) was 0.184 µM (active) in [9] and 12.7 µM (active) in [10].
